Test results taken from US10640545B2 (THE GOVERNORS OF THE UNIVERSITY OF ALBERTA, priority 2017, dated 2020).
Where a SMILES comes first, the peptide text is derived from it. [ ]: non-standard residue; d: D form. The star is where a group is joined. Phe(4-Br) = N[C@@H](Cc1ccc(Br)cc1)C(=O)O; Palmitoyl = CCCCCCCCCCCCCCCC(=O)*; NMeL = CN[C@@H](CC(C)C)C(=O)O; Nle = CCCC[C@H](N)C(=O)O; Aib = CC(C)(N)C(=O)O

Legend:
[1] = tested on: Angiotensin converting enzyme 2 (ACE2); assay: in vitro and in vivo; conditions: cited from earlier work
[2] = tested on: recombinant human neprilysin (rhNEP, Sino Biological); assay: rhNEP diluted in Tris buffer (100 mM Tris, 100 mM NaCl, 10 μM ZnCl2, pH 7.5), 3.1 nM final concentration; conditions: 37° C., up to 72 h
[3] = tested on: KLKB1 (rhKLKB1, Novoprotein); assay: Human plasma kallikrein KLKB1 in Tris buffer, KLKB1 concentration of 2 ng/pL; conditions: 37° C., up to 48 hours
KLKB1 = KLKB1 (Homo sapiens, UniProt P03952); assay: Kinetic parameters for KLKB1 cleavage; assay type: biochemical; parameters: purchased Novoprotein; conditions: enzyme KLKB1
[4] = target: T1, KLKB1 (plasma kallikrein) (Homo sapiens, UniProt P03952); assay: In vitro KLKB1 stability (half-life); assay type: in vitro ADME; conditions: human
T1 construct: purchased Novoprotein

[5] = target: Human plasma kallikrein KLKB1 (Homo sapiens, UniProt P03952); assay: Plasma kallikrein KLKB1 qualitative cleavage assay (MALDI-TOF)
Protocol: Native apelin-17 (2) and apelin peptides 5, 56, 57, 58 and 59 were dissolved in Milli-Q water (1 mM). Human plasma kallikrein KLKB1 were each reconstituted in Tris buffer (100 mM TrisHCl, 10 mM CaCl2), 150 mM NaCl) and diluted with Tris buffer (50 mM TrisHCl, 250 mM NaCl) to give a KLKB1 concentration of […]. The KLKB1 enzyme was then preincubated at 37° C. for 10 minutes prior to the addition of 5 μL of apelin peptide (1 mM). Aliquots (1 μL) were taken at 1, 2, 4, 6, 12, 24, 36, and 48 hours and analyzed with MALDI-TOF mass spectrometry to qualitatively determine the time point at which degradation products could be observed (Table 4).

in vitro = conditions: human, plasma
neprilysin (NEP) = neprilysin (NEP) (Homo sapiens, UniProt P08473); assay: in vitro; conditions: human, pH 7.5
Protocol: (§1) This experiment compared the in vitro NEP stability of the Arg/Leu peptides of the embodiments to native apelin isoforms and their A2 substituted counterparts. Peptides were incubated with recombinant human NEP (rhNEP, Sino Biological) at 37° C. for up to 72 h, and the extent of degradation was analyzed via LC-MS because of the overlapping elution patterns of peptide fragments. […] (McKinnie, S. M. K., et al. ChemBioChem: 17, 1495-1498 (2016)). […] (Dion, N., et al., Biochem. J.: 311, 623-627 (1995); Bateman Jr., R. C., et al., J. Biol. Chem.: 264, 6151-6157 (1989); McMurray, J. J. et al., J. Med.: 371, 993-1004 (2014)).
(§2) Apelin peptides were dissolved in Milli-Q water (1 mM). Recombinant human neprilysin (rhNEP, Sino Biological) was reconstituted in Tris buffer (100 mM Tris, 100 mM NaCl, 10 μM ZnCl2, pH 7.5). To initiate the assay, rhNEP was diluted in Tris buffer (3.1 nM final concentration), and preincubated at 37° C. for 10 minutes prior to the addition of 5 μL of apelin peptide (1 mM) and 1.5 μL internal standard dansyl-Tyr-Val-Gly-OH (1 mM). Aliquots (10 μL) were removed at 0, 1, 4, 24, and 72 h, quenched with 0.1 M EDTA (10 μL), diluted to 100 μL with Milli-Q water and analyzed by LC-MS. Assays were performed in triplicate (n=3) for each time point. Integrated peak areas of the parent apelin peptide and internal standard derived from LC-MS analyses, were extracted using Mass Hunter software (version B.04.00) and compared in positive extracted ion count modus (+EIC, extracted-ion chromatogram). […] (apelin:dansyl-YVG), to the same ratio at the different assay time points. The decrease in apelin:dansyl-YVG ratio was converted to a percentage of cleaved peptide over time.
(§3) The extent of degradation was analyzed via LC-MS because of the overlapping elution patterns of peptide fragments (NEP).
(§4) Native apelin-17 (2) and apelin peptides 5, 54, 56, 57, 58 and 59 were dissolved in Milli-Q water (1 mM). Recombinant human neprilysin (rhNEP, Sino Biological) was reconstituted in Tris buffer (100 mM Tris, 100 mM NaCl, 10 μM ZnCl2, pH 7.5). To initiate the assay, rhNEP was diluted in Tris buffer (3.1 nM final concentration) and preincubated at 37° C. for 10 min prior to the addition of 5 μL of apelin peptide (1 mM) and 1.5 μL of internal standard dansyl-Tyr-Val-Gly-OH (1 mM). Aliquots (10 μL) were removed at 0, 1, 4, 24, and 72 h, quenched with 0.1 M EDTA (10 μL), diluted to 100 μL with Milli-Q water, and analyzed by LC-MS. Assays were performed in triplicate (n=3) for each time point. Integrated peak areas of the parent apelin peptide and internal standard derived from LC-MS analyses were extracted using Mass Hunter software (version B.04.00) and compared in positive extracted ion count modus (+EIC). The extent of proteolysis was determined by comparing the initial (0 h) ratio of the integrated extracted ions of the parent apelin peptide to the internal dansyl-YVG standard (apelin/dansyl-YVG) to the same ratio at the different assay time points. The decrease in apelin/dansyl-YVG ratio was converted to a percentage of cleaved peptide over time.

NEP = NEP (Homo sapiens, UniProt P08473); assay: Neprilysin degradation assay (LC-MS, quantitative); conditions: rhNEP, 37° C., up to 72 h, LC-MS
Protocol: as §1, §2, §3, §4

Chain of neprilysin (NEP) (P08473 whole entry, the tested form may be a part, canonical isoform): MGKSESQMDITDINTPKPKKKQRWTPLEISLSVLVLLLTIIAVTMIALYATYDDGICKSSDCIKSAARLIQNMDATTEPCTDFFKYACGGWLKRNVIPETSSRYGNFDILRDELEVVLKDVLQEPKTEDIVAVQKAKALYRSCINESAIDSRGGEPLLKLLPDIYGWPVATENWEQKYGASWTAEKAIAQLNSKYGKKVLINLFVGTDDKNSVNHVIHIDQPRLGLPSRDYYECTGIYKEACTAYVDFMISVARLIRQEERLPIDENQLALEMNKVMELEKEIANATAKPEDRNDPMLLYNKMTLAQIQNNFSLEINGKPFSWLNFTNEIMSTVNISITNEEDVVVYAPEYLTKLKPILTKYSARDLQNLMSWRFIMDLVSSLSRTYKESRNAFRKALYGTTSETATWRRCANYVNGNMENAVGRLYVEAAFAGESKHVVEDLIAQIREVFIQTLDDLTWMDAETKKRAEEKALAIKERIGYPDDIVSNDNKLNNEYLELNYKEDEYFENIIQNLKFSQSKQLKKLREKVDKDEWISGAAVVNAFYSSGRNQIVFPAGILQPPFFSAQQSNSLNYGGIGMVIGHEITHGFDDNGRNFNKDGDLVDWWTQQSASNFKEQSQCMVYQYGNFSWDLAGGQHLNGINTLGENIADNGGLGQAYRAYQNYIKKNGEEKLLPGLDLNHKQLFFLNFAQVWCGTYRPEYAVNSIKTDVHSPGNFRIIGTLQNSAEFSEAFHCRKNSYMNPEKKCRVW
T1 sequence (P03952 20-638): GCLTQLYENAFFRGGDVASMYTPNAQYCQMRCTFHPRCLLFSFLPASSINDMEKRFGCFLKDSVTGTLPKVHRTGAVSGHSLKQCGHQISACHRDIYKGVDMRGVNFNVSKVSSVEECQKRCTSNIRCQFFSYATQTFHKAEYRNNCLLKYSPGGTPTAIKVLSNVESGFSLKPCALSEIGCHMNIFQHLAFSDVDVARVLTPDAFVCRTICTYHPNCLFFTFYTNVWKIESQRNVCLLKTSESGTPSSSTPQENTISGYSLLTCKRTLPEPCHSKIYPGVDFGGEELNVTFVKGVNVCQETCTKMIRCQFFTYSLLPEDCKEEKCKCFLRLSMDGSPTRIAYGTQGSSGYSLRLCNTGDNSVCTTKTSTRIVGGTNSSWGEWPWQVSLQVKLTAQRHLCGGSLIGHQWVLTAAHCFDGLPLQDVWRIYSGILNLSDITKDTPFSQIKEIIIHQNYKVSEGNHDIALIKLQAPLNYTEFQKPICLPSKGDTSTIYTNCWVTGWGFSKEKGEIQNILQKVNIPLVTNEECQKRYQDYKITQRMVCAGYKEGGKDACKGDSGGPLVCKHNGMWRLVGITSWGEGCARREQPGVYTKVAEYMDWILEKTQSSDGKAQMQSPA
Chain of Human plasma kallikrein KLKB1 (P03952 20-638): as above
Chain of KLKB1 (P03952 20-638): as above
Chain of NEP (P08473 whole entry): as the sequence (P08473 whole entry, the tested form may be a part, canonical isoform) above

half-life [4] | Degradation Onset Timepoint with KLKB1 [5] | half-life (neprilysin (NEP)) | Compound | cleaved bond [1] | other results
 |  |  | LVQPRGSRNGPGPWQGGRRKFRR-QRPRLSHKGPMPF | Pro-Phe | 
 |  |  | Lys-Phe-Arg-Arg-Gln-Arg-Pro-Arg-NMeLeu-Ser-His-Lys-Gly-Pro-Nle-Aib-paraBrPhe |  | cleaved bond [2]: Nle15-Aib16, minor; cleaved bond [3]: Arg3-Arg4
0.7 h | <0.5 h | 1 h | CCCC[C@H](NC(=O)[C@@H]1CCCN1C(=O)CNC(=O)[C@H](CCCCN)NC(=O)[C@H](Cc1c[nH]cn1)NC(=O)[C@H](CO)NC(=O)[C@H](CC(C)C)NC(=O)[C@H](CCCNC(=N)N)NC(=O)[C@@H]1CCCN1C(=O)[C@H](CCCNC(=N)N)NC(=O)[C@H](CCC(N)=O)NC(=O)[C@H](CCCNC(=N)N)NC(=O)[C@H](CCCNC(=N)N)NC(=O)[C@H](Cc1ccccc1)NC(=O)[C@@H](N)CCCCN)C(=O)NC(C)(C)C(=O)N[C@@H](Cc1ccc(Br)cc1)C(=O)O [Peptide 5] (H-KFRRQRPRLSHKGP[Nle][Aib][Phe(4-Br)]-OH; C-terminus assumed) |  | Km (KLKB1): 30 ± 4 µM; kcat (KLKB1): 1.4 ± 0.2 s⁻¹; remaining at 0.5 h, 80 µM (in vitro): 43 ± 1%; remaining at 1 h, 80 µM (in vitro): 35 ± 5%
2.1 h | 2 h | > 30 h | CCCCCCCCCCCCCCCC(=O)N[C@@H](CCCCN)C(=O)N[C@@H](Cc1ccccc1)C(=O)N[C@@H](CCCNC(=N)N)C(=O)N[C@@H](CCCNC(=N)N)C(=O)N[C@@H](CCC(N)=O)C(=O)N[C@@H](CCCNC(=N)N)C(=O)N1CCC[C@H]1C(=O)N[C@@H](CCCNC(=N)N)C(=O)N(C)[C@@H](CC(C)C)C(=O)N[C@@H](CO)C(=O)N[C@@H](Cc1cnc[nH]1)C(=O)N[C@@H](CCCCN)C(=O)NCC(=O)N1CCC[C@H]1C(=O)N[C@@H](CCCC)C(=O)NC(C)(C)C(=O)N[C@@H](Cc1ccc(Br)cc1)C(=O)O [Peptide 58] (Palmitoyl-KFRRQRPR[NMeL]SHKGP[Nle][Aib][Phe(4-Br)]-OH) |  | 
1 h | 1 h | 1.5 h | CCCCCCCCCCCCCCCC(=O)N[C@@H](CCCCN)C(=O)N[C@@H](Cc1ccccc1)C(=O)N[C@@H](CCCNC(=N)N)C(=O)N[C@@H](CCCNC(=N)N)C(=O)N[C@@H](CCC(N)=O)C(=O)N[C@@H](CCCNC(=N)N)C(=O)N1CCC[C@H]1C(=O)N[C@@H](CCCNC(=N)N)C(=O)N[C@@H](CC(C)C)C(=O)N[C@@H](CO)C(=O)N[C@@H](Cc1cnc[nH]1)C(=O)N[C@@H](CCCCN)C(=O)NCC(=O)N1CCC[C@H]1C(=O)N[C@@H](CCCC)C(=O)NC(C)(C)C(=O)N[C@@H](Cc1ccc(Br)cc1)C(=O)O [Peptide 56] (Palmitoyl-KFRRQRPRLSHKGP[Nle][Aib][Phe(4-Br)]-OH) |  | 
 |  |  | (Pyr)RPRLSHKGPMPF | Pro-Phe | not cleaved [2]: C-terminal dipeptide excision was not observed
 |  |  | KFRRQRPRLSHKGPMPF | Pro-Phe | not cleaved [2]: C-terminal dipeptide excision was not observed; cleaved bond [3]: Arg3-Arg4, <30 min
 |  |  | CSCC[C@H](NC(=O)[C@@H]1CCCN1C(=O)CNC(=O)[C@H](CCCCN)NC(=O)[C@H](Cc1cnc[nH]1)NC(=O)[C@H](CO)NC(=O)[C@H](CC(C)C)NC(=O)[C@H](CCCNC(=N)N)NC(=O)[C@@H]1CCCN1C(=O)[C@H](CCCNC(=N)N)NC(=O)[C@@H]1CCC(=O)N1)C(=O)N1CCC[C@H]1C(=O)N[C@@H](Cc1ccccc1)C(=O)O [Peptide 1, reference compound] |  | in vitro NEP proteolytic stability (in words) (NEP): degraded by NEP at rates comparable to those previously reported
